# Laboratory results: US20090288227A1, “Improvements in or Relating to Starch Storage in Plants” (University of Durham, priority 2006, published 2009)
# Marks after values point to notes of the source that are not given here.
# Legend:
# Assay type in all cases: in vivo, Arabidopsis thaliana
# tnp seedlings = experiment: Penetrance of the tnp phenotype in seedlings germinated and grown on medium containing the compound; details: for effect on penetrance of the tnp phenotype: tnp seed germinated and grown in presence of the compound, result in words
# Experimental: In order to establish whether the incomplete penetrance was due to methylation-dependent gene silencing, individual T3 sibling lines were germinated in the presence of 100 μM 5-azacytidine, a methylation inhibitor (Jones and Taylor, 1980 Cell 20, 85-93). […]
# The tnp mutant phenotype is similar to that of the pkl mutant, which is characterised by the development of swollen and greenish roots that accumulate triacylglycerols and protein bodies (Ogas et al, 1997 Science 277, 91-94; Ogas et al, 1999 Proc. Natl. Acad. Sci. USA 96, 13839-13844). The penetrance of the pkl mutant phenotype is also variable and is affected by gibberellic acid and the gibberellin biosynthesis inhibitor, uniconazole-P. In order to determine whether growth factors have an effect on the penetrance of the tnp phenotype, the tnp seed was germinated and grown in the presence of a number of compounds (see Table 2).
# Given the large quantities of starch stored in tnp, the effect of sugars on penetrance was examined. […] Furthermore, the effect of 1% glucose or fructose was not as potent as the effect obtained from sucrose alone. […] The effect of sugars on the penetrance of tnp was not due to an osmotic effect, since mannitol was ineffective at inducing penetrance in the absence of sugar (data not shown).
# FUS3 transcript = experiment: Semi-quantitative RT-PCR of FUS3 transcript in treated tnp seedlings; details: tnp seedlings at 1-2 days post-germination
# Description: (§1) Alternatively, it is possible that these compounds may act by changing the expression of other key embryonic regulators to alter penetrance. FUS3 and LEC2 play key roles in embryogenesis and the transition to germination (Luerben et al, 1998 Plant J. 15, 755-764; Stone et al, 2001 Proc. Natl. Acad. Sci. USA 98, 11806-11811; Kroj et al, 2003 Development 130, 6065-6073). Semi-quantitative RT-PCR was used to determine whether the transcript levels in these genes were affected in tnp seedlings at 1-2 days post-germination in response to treatment with these compounds (see FIG. 10b).
# LEC1 transcript = experiment: Semi-quantitative RT-PCR of LEC1 transcript in treated germinating seedlings; details: tnp and pls control seedlings, RNA at 1-2 days post-germination
# Experimental: To investigate the mechanism by which these compounds work, germinating seedlings were treated with each of the compounds, as well as with gibberellic acid (which has no effect on penetrance), and RNA was extracted at 1-2 days post-germination. […] Therefore, the effect of these compounds on penetrance is not mediated by alterations in LEC1 transcript levels, although post-transcriptional or translational effects cannot be excluded.
# LEC2 transcripts = experiment: Semi-quantitative RT-PCR of LEC2 transcript in treated tnp seedlings; details: tnp seedlings at 1-2 days post-germination
# Description: as §1
# [1] = Table 2 second series (1/2MS10 control 47.8), 10 nM
# [2] = Table 2 second series (1/2MS10 control 47.8), 100 nM
# [3] = Table 2 first series (1/2 MS10 control 32.8), 10 nM
# [4] = Table 2 second series (1/2MS10 control 47.8), 1 μM
# [5] = Table 2 first series (1/2 MS10 control 32.8), 10 uM
structure (smiles),measurement,setting,value
"CC(C)(C)[C@@H](O)[C@@H](Cc1ccc(Cl)cc1)n1cncn1 (racemic) [Paclobutrazol, paclobutrazol]",% tnp,tnp seedlings; [1],84.7%
same,% tnp,tnp seedlings; [2],72.3* %
same,effect on penetrance of the tnp phenotype,tnp seedlings,increased
same,FUS3 transcript levels,FUS3 transcript,did not have a significant effect
same,LEC1 transcript levels,LEC1 transcript,unaltered
same,levels of LEC2 transcripts,LEC2 transcripts,no effect
"O=C(O)COc1ccc(Cl)cc1Cl [2,4-D, 2,4-dichlorophenoxyacetic acid]",% tnp,"tnp seedlings; 0% suc. + 10 nm 2,4-D",2%
same,% tnp,"tnp seedlings; 1% suc. + 10 nm 2,4-D",85.1%
same,% tnp,"tnp seedlings; 2% suc. + 10 nm 2,4-D",92.3%
same,% tnp,"tnp seedlings; 3% suc. + 10 nm 2,4-D",84.1%
same,% tnp,"tnp seedlings; 4% suc. + 10 nm 2,4-D",68.9%
same,% tnp,"tnp seedlings; 5% suc. + 10 nm 2,4-D",82.4%
same,% tnp,"tnp seedlings; 6% suc. + 10 nm 2,4-D",66.0%
same,% tnp,tnp seedlings; [3],78.1%
same,% tnp,tnp seedlings; [1],82.1%
same,% tnp,tnp seedlings; [2],95.3%
same,% tnp,tnp seedlings; [4],98.2%
same,tnp penetrance compared with sucrose alone,"tnp seedlings; addition of 10 nM 2,4-D to the medium, even in absence of sucrose",greater penetrance
same,penetrance of the tnp phenotype,tnp seedlings; concentration of 1 μM,~100%
same,penetrance of tnp,"tnp seedlings; medium containing 20% sucrose and 25 nM 2,4-D, no effect on growth",highest penetrance
same,effect on penetrance of the tnp phenotype,tnp seedlings,positive effect
same,FUS3 transcript levels,FUS3 transcript,increase
same,levels of LEC2 transcripts,LEC2 transcripts,significantly reduce
"Nc1ncn([C@@H]2O[C@H](CO)[C@@H](O)[C@H]2O)c(=O)n1 [5-AZA-C, 5-azacytidine]",% tnp,"tnp seedlings; T3 Line 1, 100 μm 5-AZA-C, 1/2MS10 control 28",62%
same,% tnp,"tnp seedlings; T3 Line 7, 100 μM 5-AZA-C, 1/2MS10 control 0",7.4%
same,% tnp,"tnp seedlings; T3 Line 21, 100 μM 5-AZA-C, 1/2MS10 control 41",48%
same,penetrance of the tnp phenotype compared with control levels,"tnp seedlings; T3 sibling lines germinated in presence of 100 μM, highly variable between lines",increase in the penetrance
"CC1=CC(=O)CC(C)(C)[C@@]1(O)/C=C/C(C)=C\C(=O)O [ABA, abscisic acid]",effect on penetrance of the tnp phenotype,tnp seedlings,not found to have an effect
"NC1(C(=O)O)CC1 [ACC, 1-aminocyclopropane-1-carboxylate]",% tnp,"tnp seedlings; Table 2 first series (1/2 MS10 control 32.8), 100 pM",29.3%
same,effect on penetrance of the tnp phenotype,tnp seedlings,little effect
"c1ccc(CNc2ncnc3nc[nH]c23)cc1 [BA, N(6)-benzyladenine]",% tnp,"tnp seedlings; Table 2 first series (1/2 MS10 control 32.8), 100 nM",9.9%
same,% tnp,tnp seedlings; [1],55%
same,% tnp,tnp seedlings; [2],35.6%
same,% tnp,tnp seedlings; [4],5%
same,effect on penetrance of the tnp phenotype,tnp seedlings,markedly suppressed
same,FUS3 transcript levels,FUS3 transcript,reduction
same,levels of LEC2 transcripts,LEC2 transcripts,significantly reduce
"C=C1C[C@]23C[C@@]1(O)CC[C@H]2[C@@]12C=C[C@H](O)[C@@](C)(C(=O)O1)[C@H]2[C@@H]3C(=O)O [GA, gibberellic acid]",effect on the positive effect of paclobutrazol on tnp penetrance,"tnp seedlings; 10 nM paclobutrazol and 10 μM gibberellic acid together, data not shown",partially suppressed
same,% tnp,tnp seedlings; [5],37.3%
same,% tnp,tnp seedlings; [1],42.1%
same,% tnp,tnp seedlings; [2],52%
same,% tnp,tnp seedlings; [4],58.4%
same,% tnp,"tnp seedlings; Table 2 second series (1/2MS10 control 47.8), 10 μM",45.4%
same,effect on penetrance of the tnp phenotype,tnp seedlings,weakly positive effect
same,FUS3 transcript levels,FUS3 transcript,did not have a significant effect
same,LEC1 transcript levels,LEC1 transcript,unaltered
same,levels of LEC2 transcripts,LEC2 transcripts,significantly reduce
"O=C(O)Cc1c[nH]c2ccccc12 [IAA, indole-3-acetic acid]",% tnp,"tnp seedlings; Table 2 first series (1/2 MS10 control 32.8), 50 nM",69.1%
same,effect on penetrance of the tnp phenotype,tnp seedlings,positive effect
"O=C(O)Cc1cccc2ccccc12 [NAA, naphthaleneacetic acid]",% tnp,tnp seedlings; [3],42.8%
"O=C(O)COc1cccc2ccccc12 [NOA, naphthoxyacetic acid]",% tnp,tnp seedlings; [5],58.8%
same,effect on penetrance of the tnp phenotype,tnp seedlings,positive effect
"O=C(O)c1ccccc1C(=O)Nc1cccc2ccccc12 [NPA, 1-N-naphthylphthalamic acid]",% tnp,tnp seedlings; [5],55.4%
same,effect on penetrance of the tnp phenotype,tnp seedlings,positive effect
O=C(CO)[C@@H](O)[C@H](O)[C@H](O)CO [fructose],effect on tnp penetrance compared with sucrose alone,"tnp seedlings; 1% sugar, data not shown",not as potent
OC[C@@H](O)[C@@H](O)[C@H](O)[C@H](O)CO [mannitol],inducing tnp penetrance in the absence of sugar,"tnp seedlings; osmotic control, data not shown",ineffective
"OC[C@H]1O[C@@](CO)(O[C@H]2O[C@H](CO)[C@@H](O)[C@H](O)[C@H]2O)[C@@H](O)[C@@H]1O [suc., sucrose]",% tnp,tnp seedlings; 1% suc. in medium,60.5%
same,% tnp,tnp seedlings; 2% suc. in medium,65.4%
same,% tnp,tnp seedlings; 3% suc. in medium,58.4%
same,% tnp,tnp seedlings; 4% suc. in medium,52.4%
same,% tnp,tnp seedlings; 5% suc. in medium,54.1%
same,% tnp,tnp seedlings; 6% suc. in medium,42.8%
same,level of tnp penetrance over sucrose concentrations,tnp seedlings; concentration of 2% sucrose,highest level of penetrance
